Laboratory results: patent US10988459B2 (priority 2015, dated 2021)

The compounds below were run against human RIP1 kinase domain (2-375) (Homo sapiens (Human), UniProt Q13546) (assay: biochemical). Conditions: Table 5; apparent Ki (Morrison tight-binding fit); 50 nM RIP1 kinase domain, 50 uM ATP, 2 hours incubation; read-out: Ki.
Format: biochemical
How it was run: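 50 nM purified kinase domain from baculovirus-infected insect cells, incubated 2 h with compound in 50 mM Hepes pH 7.5, 30 mM MgCl2, 1 mM DTT, 50 uM ATP, 0.002% Brij-35, 0.5% DMSO. ADP formation read by Transcreener FP at 633 nm excitation. Ki^app fitted with the Morrison tight-binding equation.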

human RIP1 kinase domain (2-375), sequence (Q13546 2-375): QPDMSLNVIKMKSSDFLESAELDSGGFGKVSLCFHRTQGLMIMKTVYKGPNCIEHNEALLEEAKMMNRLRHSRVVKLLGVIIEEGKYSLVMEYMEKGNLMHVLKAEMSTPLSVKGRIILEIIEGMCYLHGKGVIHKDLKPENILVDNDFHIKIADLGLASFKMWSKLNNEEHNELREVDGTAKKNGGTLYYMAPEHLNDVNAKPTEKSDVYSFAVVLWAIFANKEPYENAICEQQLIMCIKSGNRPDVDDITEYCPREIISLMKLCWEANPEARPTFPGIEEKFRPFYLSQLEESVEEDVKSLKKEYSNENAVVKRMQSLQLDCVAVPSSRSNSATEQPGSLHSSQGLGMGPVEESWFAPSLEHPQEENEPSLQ

Row | Structure (SMILES) | Ki [nM]
1 | CN1C(=O)C(NC(=O)c2ncn(Cc3ccccc3)n2)CCn2nc(CN3CCC(F)(F)C3)cc21 (single isomer, unassigned) [Example 719, 1-benzyl-N-[2-[(3,3-difluoropyrrplidin-1-yl)methyl]-4-methyl-5-oxo-7,8-dihydro-6H-pyrazolo[1,5-a][1,3]diazepin-6-yl]-1,2,4-triazole-3-carboxamide] | 214

Same assay, conditions: human RIP1 kinase domain (2-375), 50 uM ATP, 2 hours incubation, Transcreener ADP assay; read-out: RIP1 Ki

Row | Structure (SMILES) | Ki [nM]
2 | CN1C(=O)[C@@H](NC(=O)c2nnn3c2CC2(CCCC2)C3)CCn2nccc21 [Example 120, (S)—N-(4-methyl-5-oxo-5,6,7,8-tetrahydro-4H-pyrazolo[1,5-a][1,3]diazepin-6-yl)-4′H,6′H-spiro[cyclopentane-1,5′-pyrrolo[1,2-c][1,2,3]triazole]-3′-carboxamide] | 2100
3 | CN1C(=O)[C@@H](NC(=O)c2ncn(Cc3ccc(F)cc3)n2)CCn2nc(C3CC3)cc21 [Example 225, (S)—N-(2-cyclopropyl-4-methyl-5-oxo-5,6,7,8-tetrahydro-4H-pyrazolo[1,5-a][1,3]diazepin-6-yl)-1-(4-fluorobenzyl)-1H-1,2,4-triazole-3-carboxamide] | 21

Same assay, conditions: human RIP1 kinase domain (2-375), Transcreener ADP assay, 50 uM ATP, 2 hours incubation; read-out: RIP1 Ki

Row | Structure (SMILES) | Ki [nM]
4 | CC[C@@]1(C)OCc2cc(C(=O)NC3CCn4nc(-c5ccccc5)cc4N(C)C3=O)ncc21 (stereo partly drawn) [Example 264, (3R)-3-ethyl-3-methyl-N-(4-methyl-5-oxo-2-phenyl-5,6,7,8-tetrahydro-4H-pyrazolo[1,5-a][1,3]diazepin-6-yl)-1,3-dihydrofuro[3,4-c]pyridine-6-carboxamide] | 232
5 | CN1C(=O)C(NC(=O)c2ncn(Cc3ccc(Cl)cc3)n2)CCn2nc(C3CC3)cc21 (stereo not drawn) [Example 288, 1-(4-chlorobenzyl)-N-(2-cyclopropyl-4-methyl-5-oxo-5,6,7,8-tetrahydro-4H-pyrazolo[1,5-a][1,3]diazepin-6-yl)-1H-1,2,4-triazole-3-carboxamide] | 62.3

Same assay, conditions: tight-binding apparent inhibition constant; human RIP1 kinase domain (2-375) 50 nM, 50 uM ATP, 2 hours; read-out: Ki

Row | Structure (SMILES) | Ki [nM]
6 | CN1C(=O)[C@@H](NC(=O)c2nc3n(n2)C(c2ccccc2)CCC3)COc2ccccc21 (stereo partly drawn) [Example 376, N—((S)-5-methyl-4-oxo-2,3,4,5-tetrahydrobenzo[b][1,4]oxazepin-3-yl)-5-phenyl-5,6,7,8-tetrahydro-[1,2,4]triazolo[1,5-a]pyridine-2-carboxamide] | 42.3
7 | CN1C(=O)[C@@H](NC(=O)c2ncn(CC3CCC(F)(F)C3)n2)CCn2nc(C3CC3)cc21 (stereo partly drawn) [Example 594] | 420
8 | Cc1cc2n(n1)CC[C@H](NC(=O)c1nc3n(n1)CCC3c1ccccc1)C(=O)N2C (stereo partly drawn) [Example 574, 7-phenyl-N-[(6S)-2,4-dimethyl-5-oxo-7,8-dihydro-6H-pyrazolo[1,5-a][1,3]diazepin-6-yl]-6,7-dihydro-5H-pyrrolo[1,2-b][1,2,4]triazole-2-carboxamide] | 58
9 | Cn1cc(C2CCCc3nc(C(=O)N[C@H]4CCc5cc(F)cc(F)c5NC4=O)nn32)cn1 (stereo partly drawn) [Example 433, N—((S)-7,9-difluoro-2-oxo-2,3,4,5-tetrahydro-1H-benzo[b]azepin-3-yl)-5-(1-methyl-1H-pyrazol-4-yl)-5,6,7,8-tetrahydro-[1,2,4]triazolo[1,5-a]pyridine-2-carboxamide] | 143
10 | CCC1CCCc2nc(C(=O)N[C@H]3COc4ccccc4N(C)C3=O)nn21 (stereo partly drawn) [Example 383, 5-ethyl-N—((S)-5-methyl-4-oxo-2,3,4,5-tetrahydrobenzo[b][1,4]oxazepin-3-yl)-5,6,7,8-tetrahydro-[1,2,4]triazolo[1,5-a]pyridine-2-carboxamide] | 29.5
11 | O=C(N[C@H]1COc2cc(F)cc(F)c2NC1=O)c1nc2cccc(C3CCOCC3)n2n1 [Example 422, (S)—N-(6,8-difluoro-4-oxo-2,3,4,5-tetrahydrobenzo[b][1,4]oxazepin-3-yl)-5-(tetrahydro-2H-pyran-4-yl)-[1,2,4]triazolo[1,5-a]pyridine-2-carboxamide] | 27.4
12 | O=C(N[C@H]1CCc2cc(F)cc(F)c2NC1=O)c1nc2n(n1)[C@H](C(F)(F)F)CCC2 (single isomer, unassigned) [Example 430] | 21
